Source: patent publication US11077126B2 (priority 2017, dated 2021)

How the values were obtained:
[1] = system: transplanted tumor of human pancreatic cancer PANC-1 cells; assay: Human pancreatic cancer in nude mice model
Experimental: (§1) Then cell concentration was adjusted to 1×10^7/ml with matrigel, and then each nude mouse was inoculated subcutaneously with 0.2 ml of cells at its right armpit and recorded as the first day of inoculation. […] Each group was continuously administered intragastrically for 30 days with a dose of 20 ml/kg. The mice were sacrificed the next day after drug withdrawal and the indicators were tested. The long diameter and short diameter of the tumor, and the body weight of each mouse were recorded every 3 days from drug administration to nude mouse sacrifice.
(§2) The body weight of the nude mice and the long diameter (a) and short diameter (b) of the transplanted tumor were measured every 3 days, and the tumor volume (v), relative tumor volume (RTV) and relative tumor proliferation rate (T/C) are calculated respectively according to the following formulas, wherein V=a×b^2/2; RTV=V/V0 (V0 is the tumor volume before administration, V is the tumor volume before sacrifice), and T/C (%)=treatment group RTV/model control group RTV×100%
(§3) Each mouse was weighed and sacrificed. After the tumor was completely stripped off from the body of the mouse, the non-tumor tissues such as blood stains and fat were removed to weigh the tumor and calculate the tumor growth inhibition rate. The average tumor weight of each group of mice is used as an indicator of efficacy. Tumor growth inhibition rate (%)=(1−the average tumor weight of the treatment group/the average tumor weight of the model group)×100%.

[2] = system: transplanted tumor of human glioblastoma A172 cells; assay: Human glioblastoma in nude mice model; details: 30 mg/kg i.g. 30 d
Experimental: as §1, with “matrigel,” for “matrigel, and”
as §2, with “RTV×100%.” for “RTV×100%”
as §3

[3] = system: transplanted tumor of human non-small cell lung cancer A549 cells; assay: Human non-small cell lung cancer in nude mice model; details: 30 mg/kg i.g. 30 d
Experimental: as §1, with “A549 cells in a logarithmic growth phase were taken and subjected to a trypan blue exclusion experiment showing that the cell viability was more than 95%, then the cells were subjected to trypsinization, centrifugation, and supernatant removal. Then” for “Then”, “matrigel,” for “matrigel, and”, “inoculation. When the tumor growed to be greater than or equal to 100 mm^3, the mice were randomly divided into 5 groups with 6 mice in each group.” for “inoculation.”
as §2, with “RTV×100%.” for “RTV×100%”
as §3

[4] = system: transplanted tumor of human gastric adenocarcinoma SGC7901 cells; assay: Human gastric adenocarcinoma in nude mice model; details: 30 mg/kg
Experimental: as §1
as §2, with “RTV×100%.” for “RTV×100%”
as §3

[5] = system: transplanted tumor of human renal clear cell adenocarcinoma 786-O cells; assay: Human renal clear cell adenocarcinoma in nude mice model; details: 786-O nude mice; 30 mg/kg i.g. 30 d
Experimental: as §1, with “786-O cells in a logarithmic growth phase were taken and subjected to a trypan blue exclusion experiment showing that the cell viability was more than 95%, then the cells were subjected to trypsinization, centrifugation, and supernatant removal. Then” for “Then”
as §2, with “RTV×100%.” for “RTV×100%”
as §3

[6] = system: transplanted tumor of human hepatocarcinoma HepG-2 cells; assay: Human hepatocarcinoma in nude mice model; details: HepG-2 nude mice; 30 mg/kg i.g. 30 d
Experimental: as §1
as §2, with “RTV×100%.” for “RTV×100%”
as §3

[7] = system: transplanted tumor of human glioma U251 cells; assay: Human glioma in nude mice model; details: 30 mg/kg i.g. 30 d
Experimental: as §1, with “Then matrigel” for “Then”, “of” for “of the”
as §2, with “RTV×100%.” for “RTV×100%”
as §3

[8] = system: thymus and spleen of Lewis lung cancer tumor-bearing mice; assay: Thymus index and spleen index of Lewis lung cancer tumor-bearing mice; assay type: in vivo, C57BL/6 mouse
Experimental: After the tumor-bearing mice are sacrificed, the spleen and thymus are weighed, and the spleen index and thymus index are calculated.

[9] = PANC-1 nude mice, 30 mg/kg i.g. 30 d
[10] = 26 mg/kg, positive drug group, n = 6

For `O=P1(N(CCCl)CCCl)NCCCO1` (centres unmarked) [Cyclophosphamide], the “Relative Tumor Proliferation Rate(T/C)” value ([1]; 30 mg/kg) was 54.55%, the “Relative Tumor Volume (RTV)” value ([1]; 30 mg/kg) was 5.54 ± 0.72 and the “Tumor Volume (mm3) (d1)” value ([1]; 30 mg/kg, d1) was 93.73 ± 8.27 mm3. For the same compound, the “Tumor Volume (mm3) (d30)” value ([1]; 30 mg/kg, d30) was 515.49 ± 32.36 mm3, the “Body Weight (g)(d1)” value [1, 9] was 21.89 ± 1.88 g and the “Body Weight (g)(d30)” value [1, 9] was 19.92 ± 1.68 g. For the same compound, the “Inhibition Rate (%)” value [1, 9] was 80.43%, the “Tumor Weight” value [1, 9] was 0.73 ± 0.09 g and the “Body Weight (g)(d1)” value [2] was 22.89 ± 1.22 g. The “Body Weight (g)(d30)” value [2] was 19.27 ± 1.49 g, the “Inhibition Rate (%)” value [2] was 68.68% and the “Relative Tumor Proliferation Rate(T/C)” value [2] was 75.42%. For the same compound, the “Relative Tumor Volume (RTV)” value [2] was 11.78 ± 3.25, the “Tumor Volume (mm3) (d1)” value [2] was 122.41 ± 14.06 mm3 and the “Tumor Volume (mm3) (d30)” value [2] was 1430.80 ± 134.31 mm3. The “Tumor Weight” value [2] was 0.85 ± 0.18 g, the “Body Weight (g)(d1)” value [3] was 20.89 ± 0.91 g and the “Body Weight (g)(d30)” value [3] was 18.97 ± 0.82 g. For the same compound, the “Inhibition Rate (%)” value [3] was 81.25%, the “Relative Tumor Proliferation Rate(T/C)” value [3] was 23.28% and the “Relative Tumor Volume (RTV)” value [3] was 3.97 ± 0.68. For the same compound, the “Tumor Volume (mm3) (d1)” value [3] was 127.26 ± 15.21 mm3, the “Tumor Volume (mm3) (d30)” value [3] was 504.75 ± 143.63 mm3 and the “Tumor Weight” value [3] was 0.21 ± 0.11 g. For the same compound, the “Relative Tumor Proliferation Rate(T/C)” value [4] was 48.83%, the “Relative Tumor Volume (RTV)” value [4] was 7.86 ± 3.23 and the “Tumor Weight” value [4] was 0.71 ± 0.08 g. The “Inhibition Rate (%)” value ([4]; by tumor weight) was 70.97%, the “Body Weight (g)(d1)” value ([4]; d1) was 21.80 ± 1.96 g and the “Tumor Volume (mm3) (d1)” value ([4]; d1) was 102.45 ± 9.52 mm3. For the same compound, the “Body Weight (g)(d30)” value ([4]; d30) was 20.25 ± 1.57 g, the “Tumor Volume (mm3) (d30)” value ([4]; d30) was 799.74 ± 82.25 mm3 and the “Body Weight (g)(d1)” value [5] was 21.57 ± 1.31 g. The “Body Weight (g)(d30)” value [5] was 20.39 ± 1.02 g, the “Inhibition Rate (%)” value [5] was 71.36% and the “Relative Tumor Proliferation Rate(T/C)” value [5] was 19.93%. For the same compound, the “Relative Tumor Volume (RTV)” value [5] was 3.34 ± 0.68, the “Tumor Volume (mm3) (d1)” value [5] was 181.48 ± 31.63 mm3 and the “Tumor Volume (mm3) (d30)” value [5] was 606.14 ± 14.34 mm3. The “Tumor Weight” value [5] was 0.62 ± 0.17 g, the “Body Weight (g)(d1)” value [6] was 22.67 ± 1.54 g and the “Body Weight (g)(d30)” value [6] was 21.52 ± 1.99 g. For the same compound, the “Inhibition Rate (%)” value [6] was 63.48%, the “Relative Tumor Proliferation Rate(T/C)” value [6] was 32.55% and the “Relative Tumor Volume (RTV)” value [6] was 4.27 ± 0.26. For the same compound, the “Tumor Volume (mm3) (d1)” value [6] was 146.12 ± 2.30 mm3, the “Tumor Volume (mm3) (d30)” value [6] was 623.67 ± 28.44 mm3 and the “Tumor Weight” value [6] was 0.46 ± 0.07 g. The “Body Weight (g)(d1)” value [7] was 22.24 ± 1.53 g, the “Body Weight (g)(d30)” value [7] was 19.92 ± 1.68 g and the “Inhibition Rate (%)” value [7] was 79.74%. For the same compound, the “Relative Tumor Proliferation Rate(T/C)” value [7] was 56.84%, the “Relative Tumor Volume (RTV)” value [7] was 5.75 ± 1.22 and the “Tumor Volume (mm3) (d1)” value [7] was 98.40 ± 25.25 mm3. For the same compound, the “Tumor Volume (mm3) (d30)” value [7] was 566.33 ± 39.32 mm3, the “Tumor Weight” value [7] was 0.42 ± 0.10 g and the “Spleen Index (%)” value [8, 10] was 0.41 ± 0.12 %. For the same compound, the “Thymus Index (%)” value [8, 10] was 0.12 ± 0.09% and the “spleen index compared with the control group” value ([8]; Lewis lung cancer tumor-bearing mice, cyclophosphamide, P<0.01) was “significantly lower”.
